Source: PubChem BioAssay (NCI)
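Cells were grown in 96-well plates and exposed to each compound for 48 hours at five concentrations; endpoints were interpolated linearly between bracketing concentrations, or set to the highest concentration if not reached. GI50 marks 50% less growth. TGI marks complete inhibition of growth.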

Assays:
Assay in all cases: NCI tumour cell line growth inhibition, 48 h
NCI-H460 lung = system: NCI-H460 lung
HOP-92 NSCLC = system: HOP-92 NSCLC
SF-295 CNS = system: SF-295 CNS
SK-MEL-5 melanoma = system: SK-MEL-5 melanoma
SNB-75 CNS = system: SNB-75 CNS
OVCAR-3 ovarian = system: OVCAR-3 ovarian
CAKI-1 renal = system: CAKI-1 renal
HL-60(TB) leukemia = system: HL-60(TB) leukemia
SK-MEL-2 melanoma = system: SK-MEL-2 melanoma
NCI/ADR-RES ovarian = system: NCI/ADR-RES ovarian
TK-10 renal = system: TK-10 renal
DU-145 prostate = system: DU-145 prostate
HT29 colon = system: HT29 colon
HCT-116 colon = system: HCT-116 colon
K-562 leukemia = system: K-562 leukemia
UO-31 renal = system: UO-31 renal
KM12 colon = system: KM12 colon
COLO 205 colon = system: COLO 205 colon
MDA-MB-468 breast = system: MDA-MB-468 breast
SK-MEL-28 melanoma = system: SK-MEL-28 melanoma
NCI-H23 lung = system: NCI-H23 lung
CCRF-CEM leukemia = system: CCRF-CEM leukemia
SNB-19 CNS = system: SNB-19 CNS
MDA-MB-231 breast = system: MDA-MB-231 breast
M14 melanoma = system: M14 melanoma
MALME-3M melanoma = system: MALME-3M melanoma
U251 CNS = system: U251 CNS
RPMI-8226 leukemia = system: RPMI-8226 leukemia
EKVX NSCLC = system: EKVX NSCLC
SF-539 CNS = system: SF-539 CNS
SN12C renal = system: SN12C renal
BT-549 breast = system: BT-549 breast
NCI-H226 lung = system: NCI-H226 lung
PC-3 prostate = system: PC-3 prostate
HS 578T breast = system: HS 578T breast
OVCAR-8 ovarian = system: OVCAR-8 ovarian
RXF 393 renal = system: RXF 393 renal
MOLT-4 leukemia = system: MOLT-4 leukemia
LOX IMVI melanoma = system: LOX IMVI melanoma
SF-268 CNS = system: SF-268 CNS
A549 NSCLC = system: A549 NSCLC
NCI-H522 lung = system: NCI-H522 lung
HCT-15 colon = system: HCT-15 colon
SR leukemia = system: SR leukemia
786-0 renal = system: 786-0 renal
IGROV1 ovarian = system: IGROV1 ovarian
HCC-2998 colon = system: HCC-2998 colon
OVCAR-4 ovarian = system: OVCAR-4 ovarian
ACHN renal = system: ACHN renal
A498 renal = system: A498 renal
HOP-62 NSCLC = system: HOP-62 NSCLC
UACC-257 melanoma = system: UACC-257 melanoma
UACC-62 melanoma = system: UACC-62 melanoma
T-47D breast = system: T-47D breast
MDA-MB-435 = system: MDA-MB-435
SW-620 colon = system: SW-620 colon
SK-OV-3 ovarian = system: SK-OV-3 ovarian
OVCAR-5 ovarian = system: OVCAR-5 ovarian
MCF7 breast = system: MCF7 breast

CS(=O)(=O)Nc1cc(-c2ccc3ncnc(Nc4ccc(OCc5cccnc5)c(Cl)c4)c3c2)cnc1Cl
GI50 (NCI-H460 lung): 3.58 µM
TGI (NCI-H460 lung): 21.4 µM
GI50 (HOP-92 NSCLC): 0.183 µM
TGI (HOP-92 NSCLC): 1.97 µM
GI50 (SF-295 CNS): 2.37 µM
TGI (SF-295 CNS): 12.1 µM
GI50 (SK-MEL-5 melanoma): 0.617 µM
TGI (SK-MEL-5 melanoma): 1.93 µM
GI50 (SNB-75 CNS): 0.139 µM
TGI (SNB-75 CNS): 4.37 µM
GI50 (OVCAR-3 ovarian): 0.7 µM
TGI (OVCAR-3 ovarian): 3.48 µM
GI50 (CAKI-1 renal): 0.935 µM
TGI (CAKI-1 renal): 6.45 µM
GI50 (HL-60(TB) leukemia): 0.335 µM
TGI (HL-60(TB) leukemia): 10.3 µM
GI50 (SK-MEL-2 melanoma): 0.901 µM
TGI (SK-MEL-2 melanoma): 2.7 µM
GI50 (NCI/ADR-RES ovarian): 32.7 µM
TGI (NCI/ADR-RES ovarian): > 100 µM
GI50 (TK-10 renal): 0.714 µM
TGI (TK-10 renal): 5.51 µM
GI50 (DU-145 prostate): 2.74 µM
TGI (DU-145 prostate): 21.5 µM
GI50 (HT29 colon): 1.95 µM
TGI (HT29 colon): 13.2 µM
GI50 (HCT-116 colon): 1.69 µM
TGI (HCT-116 colon): 4.55 µM
GI50 (K-562 leukemia): 1.85 µM
TGI (K-562 leukemia): 32.4 µM
GI50 (UO-31 renal): 1.68 µM
TGI (UO-31 renal): 20.3 µM
GI50 (KM12 colon): 3.82 µM
TGI (KM12 colon): 15.2 µM
GI50 (COLO 205 colon): 1.41 µM
TGI (COLO 205 colon): 3.59 µM
GI50 (MDA-MB-468 breast): 0.208 µM
TGI (MDA-MB-468 breast): 0.962 µM
GI50 (SK-MEL-28 melanoma): 0.652 µM
TGI (SK-MEL-28 melanoma): 8.64 µM
GI50 (NCI-H23 lung): 1.37 µM
TGI (NCI-H23 lung): 5.33 µM
GI50 (CCRF-CEM leukemia): 0.801 µM
TGI (CCRF-CEM leukemia): > 37.9 µM
GI50 (SNB-19 CNS): 1.15 µM
TGI (SNB-19 CNS): 9.24 µM
GI50 (MDA-MB-231 breast): 0.96 µM
TGI (MDA-MB-231 breast): 3.05 µM
GI50 (M14 melanoma): 1.51 µM
TGI (M14 melanoma): 13.8 µM
GI50 (MALME-3M melanoma): 0.271 µM
TGI (MALME-3M melanoma): 2.13 µM
GI50 (U251 CNS): 0.917 µM
TGI (U251 CNS): 4.65 µM
GI50 (RPMI-8226 leukemia): 2.05 µM
TGI (RPMI-8226 leukemia): 6.8 µM
GI50 (EKVX NSCLC): 0.97 µM
TGI (EKVX NSCLC): 6.25 µM
GI50 (SF-539 CNS): 0.852 µM
TGI (SF-539 CNS): 3.5 µM
GI50 (SN12C renal): 0.904 µM
TGI (SN12C renal): 11.3 µM
GI50 (BT-549 breast): 0.379 µM
TGI (BT-549 breast): 2.22 µM
GI50 (NCI-H226 lung): 1.43 µM
TGI (NCI-H226 lung): 10.3 µM
GI50 (PC-3 prostate): 1.66 µM
TGI (PC-3 prostate): 14.3 µM
GI50 (HS 578T breast): 0.196 µM
TGI (HS 578T breast): 1.7 µM
GI50 (OVCAR-8 ovarian): 2.56 µM
TGI (OVCAR-8 ovarian): 20.5 µM
GI50 (RXF 393 renal): 0.367 µM
TGI (RXF 393 renal): 2.44 µM
GI50 (MOLT-4 leukemia): 0.465 µM
TGI (MOLT-4 leukemia): 4.91 µM
GI50 (LOX IMVI melanoma): 0.792 µM
TGI (LOX IMVI melanoma): 2.73 µM
GI50 (SF-268 CNS): 0.835 µM
TGI (SF-268 CNS): 10.4 µM
GI50 (A549 NSCLC): 7.76 µM
TGI (A549 NSCLC): 25.1 µM
GI50 (NCI-H522 lung): 0.641 µM
TGI (NCI-H522 lung): 4.39 µM
GI50 (HCT-15 colon): 2.84 µM
TGI (HCT-15 colon): 17 µM
GI50 (SR leukemia): 0.746 µM
TGI (SR leukemia): > 20.6 µM
GI50 (786-0 renal): 1.81 µM
TGI (786-0 renal): 11.1 µM
GI50 (IGROV1 ovarian): 0.231 µM
TGI (IGROV1 ovarian): 1.09 µM
GI50 (HCC-2998 colon): 1.59 µM
TGI (HCC-2998 colon): 5.22 µM
GI50 (OVCAR-4 ovarian): 4.91 µM
TGI (OVCAR-4 ovarian): 90.4 µM
GI50 (ACHN renal): 4.45 µM
TGI (ACHN renal): > 48.8 µM
GI50 (A498 renal): 1.84 µM
TGI (A498 renal): 6.49 µM
GI50 (HOP-62 NSCLC): 1.56 µM
TGI (HOP-62 NSCLC): 40.9 µM
GI50 (UACC-257 melanoma): 1.62 µM
TGI (UACC-257 melanoma): 12.6 µM
GI50 (UACC-62 melanoma): 0.419 µM
TGI (UACC-62 melanoma): 2.32 µM
GI50 (T-47D breast): 0.15 µM
TGI (T-47D breast): 1.47 µM
GI50 (MDA-MB-435): 1.16 µM
TGI (MDA-MB-435): 9.24 µM
GI50 (SW-620 colon): 1.9 µM
TGI (SW-620 colon): 10.9 µM
GI50 (SK-OV-3 ovarian): 1.49 µM
TGI (SK-OV-3 ovarian): 7.14 µM
GI50 (OVCAR-5 ovarian): 2.24 µM
TGI (OVCAR-5 ovarian): 18 µM
GI50 (MCF7 breast): 0.41 µM
TGI (MCF7 breast): 8.33 µM
